From patent publication US20130122051A1, “Methods of preparing progesterone pharmaceutical compositions” (PHARMACEUTICS INTERNATIONAL, INC., priority 2011, published 2013)

Assay: particle size measured using a MALVERN MASTERSIZER particle size analyzer
Format: physicochemical
Conditions: starting progesterone particles before milling
Protocol: Samples of each of the first, second, and third pass wet-milled progesterone compositions prepared under the various milling conditions are collected and the particle size (μm) is measured using a MALVERN MASTERSIZER particle size analyzer (Malvern Instruments, Westborough Mass.). Saturated, filtered, progesterone in sunflower oil is used as the diluent. “Initial” refers to unmilled progesterone suspension. “% Beads” refers to the volume of milling chamber filled with milling media (beads). “Input” refers to the pump setting. “Output” refers to the product (gm/min) received from the mill.

D90: 220 μm
Structure (SMILES): CC(=O)[C@H]1CC[C@H]2[C@@H]3CCC4=CC(=O)CC[C@]4(C)[C@H]3CC[C@]12C [unmicronized progesterone, pregn-4-ene-3,20-dione]
